Reference: patent EP4714449A1, “USE OF HETEROCYCLIC COMPOUND FOR TREATING DISEASES RELATED TO RET GENETIC CHANGE AND METHOD THEREFOR” (Sichuan Kelun-Biotech Biopharmaceutical Co., Ltd., priority 2023, dated 2024)
Where “and” joins values, the source holds several entries; their conditions need not be identical. Equal values may be shown once. Where a name gives a salt, the structure may show the parent alone.

Key:
[1] = system: Ba/F3 KIF5B-RET^G810C; experiment: Proliferation of RET mutant cells (Cell Titer Glo); type: cell-based; settings: for IC50: Mus musculus, BaF3, 72 h, 3 days, read-out: Inhibition IC50 (nM) of the compounds on the proliferation of the cell
Experimental: (§1) Experimental method: Ba/F3 cells (Ba/F3 KIF5B-RET^G810R, Ba/F3 KIF5B-RET^G810S, Ba/F3 KIFSB-RET^G810C) in logarithmic phase were respectively collected and inoculated into 96-well plates, with 2000 cells/95 µl/well. […] In addition, negative control wells (without the test compound) and blank control wells (without cells) were set.
(§2) Inhibition rate % = [1 - (average signal value of compound group - average signal value of blank control) / (average signal value of negative control - average signal value of blank control)] * 100%; the inhibition rate % was fitted using the four-parameter equation "log(agonist) vs response-variable slope (four parameters)" in GraphPad Prism 6.0, and the IC50 was obtained by calculation.

[2] = system: Ba/F3 KIF5B-RET^G810R; experiment: Proliferation of RET mutant cells (Cell Titer Glo); type: cell-based; settings: for IC50: Mus musculus, BaF3, 72 h, 3 days, read-out: Inhibition IC50 (nM) of the compounds on the proliferation of the cell
Experimental: as §1, §2

[3] = system: Ba/F3 KIF5B-RET^G810S; experiment: Proliferation of RET mutant cells (Cell Titer Glo); type: cell-based; settings: for IC50: Mus musculus, BaF3, 72 h, 3 days, read-out: Inhibition IC50 (nM) of the compounds on the proliferation of the cell
Experimental: as §1, §2

[4] = system: Ba/F3 KIF5B-RET^V804E; experiment: Proliferation of RET mutant cells (Cell Titer Glo); type: cell-based; settings: for IC50: Mus musculus, BaF3, 72 h, 3 days, read-out: Inhibition IC50 (nM) of the compounds on the proliferation of the cell
Experimental: (§3) Ba/F3 cells (Ba/F3 KIF5B-RET^V804E, Ba/F3 KIF5B-RET^V804L, Ba/F3 KIF5B-RET^V804M) in logarithmic phase were respectively collected and inoculated into 96-well plates, with 1000 cells/95 µl/well. […] In addition, negative control wells (without the test compound) and blank control wells (without cells) were set.
as §2

[5] = system: Ba/F3 KIF5B-RET^V804L; experiment: Proliferation of RET mutant cells (Cell Titer Glo); type: cell-based; settings: for IC50: Mus musculus, BaF3, 72 h, Ba/F3 KIFSB-RET^V804L, 3 days, read-out: Inhibition IC50 (nM) of the compounds on the proliferation of the cell
Experimental: as §3, §2

[6] = system: Ba/F3 KIF5B-RET^V804M; experiment: Proliferation of RET mutant cells (Cell Titer Glo); type: cell-based; settings: for IC50: Mus musculus, BaF3, 72 h, 3 days, read-out: Inhibition IC50 (nM) of the compounds on the proliferation of the cell
Experimental: as §3, §2

[7] = biological target: RET-G810R (Homo sapiens, UniProt P07949, G810R); experiment: RET inhibition experiment, HTRF KinEASE-TK kit, mutant RET-G810R enzyme; type: biochemical
[8] = biological target: RET-G810S (Homo sapiens, UniProt P07949, G810S); experiment: RET inhibition experiment, HTRF KinEASE-TK kit, mutant RET-G810S enzyme; type: biochemical
[9] = biological target: RET-G810C (Homo sapiens, UniProt P07949, G810C); experiment: RET inhibition experiment, HTRF KinEASE-TK kit, mutant RET-G810C enzyme; type: biochemical
[10] = Safety evaluation in patients with RET-altered tumors; type: in vivo, human; settings: 109 patients with RET-altered tumors, once daily, 10-120 mg
Experimental: A total of 109 patients with RET-altered tumors were recruited, and compound 1-A of the present disclosure was administered once daily at six dosage levels of 10 mg, 20 mg, 40 mg, 60 mg, 90 mg, and 120 mg.

[11] = system: NSCLC, MTC, Pancreatic Cancer, and Ovarian Cancer; experiment: Treatment of patients with NSCLC, MTC, pancreatic cancer and ovarian cancer; type: in vivo, human; settings: 90 patients (70 NSCLC, 18 MTC, 1 pancreatic cancer, 1 ovarian cancer), once daily 40-120 mg
Experimental: (§4) A total of 90 patients were recruited, including 70 patients with non-small cell lung cancer (NSCLC), 18 patients with medullary thyroid carcinoma (MTC), 1 patient with pancreatic cancer, and 1 patient with ovarian cancer. Compound 1-A of the present disclosure was administered once daily at dosage levels of 40-120 mg (40 mg, 60 mg, 90 mg, and 120 mg), resulting in an objective response rate (ORR) of 60% and a disease control rate (DCR) of 94% for the 90 patients.

[12] = system: non-small cell lung cancer (NSCLC); experiment: Treatment of NSCLC patients (subgroups of the clinical study); type: in vivo, human; parameters: disease control rate (DCR) / overall central nervous system disease control rate (CNS DCR): concentration or dose not given beside the values
Experimental: as §4
Among the 70 NSCLC patients, there were 26 who had not been systemically pretreated, 33 who had previously been systemically pretreated (excluding first-generation selective RET inhibitors), and 11 who had been previously treated with at least first-generation selective RET inhibitor therapy.

[13] = Table 7, comparison with BLU-667 and LOXO-292
[14] = 8 NSCLC patients pretreated with first-generation selective RET inhibitors, dosed at 90 mg or 120 mg
[15] = 26 NSCLC patients not systemically pretreated
[16] = 33 NSCLC patients systemically pretreated (excluding first-generation selective RET inhibitors)

Sequence of RET-G810C (P07949 29-1114 G810C): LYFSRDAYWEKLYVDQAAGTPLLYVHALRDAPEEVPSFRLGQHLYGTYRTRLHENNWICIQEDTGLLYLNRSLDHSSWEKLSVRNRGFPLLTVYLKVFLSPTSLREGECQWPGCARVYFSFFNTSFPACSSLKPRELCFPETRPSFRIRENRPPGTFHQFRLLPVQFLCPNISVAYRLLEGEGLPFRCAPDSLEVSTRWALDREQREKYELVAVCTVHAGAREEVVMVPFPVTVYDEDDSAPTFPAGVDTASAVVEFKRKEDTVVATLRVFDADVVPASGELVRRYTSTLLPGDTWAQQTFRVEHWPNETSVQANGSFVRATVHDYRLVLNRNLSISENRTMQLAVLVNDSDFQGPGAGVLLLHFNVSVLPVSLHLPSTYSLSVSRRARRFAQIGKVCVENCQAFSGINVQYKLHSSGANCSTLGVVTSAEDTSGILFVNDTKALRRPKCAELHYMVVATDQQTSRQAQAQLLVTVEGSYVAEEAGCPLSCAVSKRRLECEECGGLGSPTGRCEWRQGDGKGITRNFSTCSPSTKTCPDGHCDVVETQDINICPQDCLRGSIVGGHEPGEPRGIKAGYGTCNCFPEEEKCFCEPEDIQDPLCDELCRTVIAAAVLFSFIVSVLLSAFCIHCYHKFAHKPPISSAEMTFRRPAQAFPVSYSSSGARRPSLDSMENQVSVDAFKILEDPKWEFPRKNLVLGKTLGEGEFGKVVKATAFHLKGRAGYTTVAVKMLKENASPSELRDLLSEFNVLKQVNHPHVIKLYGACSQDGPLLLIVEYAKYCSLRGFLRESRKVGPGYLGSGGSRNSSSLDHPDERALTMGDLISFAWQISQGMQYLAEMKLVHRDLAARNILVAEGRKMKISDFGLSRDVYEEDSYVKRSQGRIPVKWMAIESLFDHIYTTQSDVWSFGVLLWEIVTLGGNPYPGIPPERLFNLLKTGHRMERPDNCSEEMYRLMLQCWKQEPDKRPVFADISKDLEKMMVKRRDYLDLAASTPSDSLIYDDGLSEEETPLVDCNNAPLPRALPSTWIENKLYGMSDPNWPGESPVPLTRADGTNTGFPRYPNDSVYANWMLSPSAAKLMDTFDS
Sequence of RET-G810R (P07949 29-1114 G810R): as the sequence (P07949 29-1114 G810C) above, with C782R counted along it
Sequence of RET-G810S (P07949 29-1114 G810S): as the sequence (P07949 29-1114 G810C) above, with C782S counted along it

## CO[C@]1(C(=O)N[C@@H](C)c2ccc(-n3cc(F)cn3)nc2)CC[C@H](c2nc(C)cc(Nc3cc(C)[nH]n3)n2)CC1 [BLU-667, reference compound]
[1]
  IC50: 146 ± 3.4 nM
[2]
  IC50: 182 ± 80 nM
[3]
  IC50: 29 ± 4.47 nM
[4]
  IC50: 76.2 ± 9.74 nM
[5]
  IC50: 87.1 ± 11.3 nM
[6]
  IC50: 39.5 ± 16.7 nM

## COc1ccc(CN2C3CC2CN(c2ccc(-c4cc(OCC(C)(C)O)cn5ncc(C#N)c45)cn2)C3)cn1 [LOXO-292, reference compound]
[1]
  IC50: 477 ± 4.4 nM
[2]
  IC50: 116.3 ± 1.15 nM
[3]
  IC50: 87.83 ± 0.75 nM
[4]
  IC50: 460 ± 32.9 nM
[5]
  IC50: 1330 ± 666 nM
[6]
  IC50: 503 ± 190 nM

## Cc1cc(Nc2cc(C)[nH]n2)nc(-c2ccc(N3CC4CC(C3)N4Cc3ccc(-n4cc(F)cn4)nc3)nc2)n1 [Compound 1-A, Fumarate of 2-(6-(6-((6-(4-fluoro-1H-pyrazol-1-yl)pyridin-3-yl)methyl)-3,6-diazabicyclo[3.1.1]heptan-3-yl)pyridin-3-yl)-6-methyl-N-(5-methyl-1H-pyrazol-3-yl)pyrimidin-4-amine]
[7]; [13]
  IC50: 19.6 ± 0.67 nM
[7]; summary of Tables 1, 2, 7
  inhibition on RET-G810R enzyme (in words): remarkably inhibited
[8]; [13]
  IC50: 2.69 ± 0.56 nM
[8]; summary of Tables 3, 4, 7
  inhibition on RET-G810S enzyme (in words): remarkably inhibited
[9]; [13]
  IC50: 53.2 ± 10.7 nM
[9]; summary of Tables 5, 6, 7
  inhibition on RET-G810C enzyme (in words): remarkably inhibited
[1]
  inhibiting the proliferation, comparison in words: superior to BLU-667 and Loxo-292
  IC50: 65.3 ± 1 nM
[2]
  inhibiting the proliferation, comparison in words: superior to BLU-667 and Loxo-292
  IC50: 26.3 ± 5.76 nM
[3]
  inhibiting the proliferation, comparison in words: superior to BLU-667 and Loxo-292
  IC50: 20.2 ± 0.35 nM
[4]
  inhibiting the proliferation, comparison in words: superior to BLU-667 and Loxo-292
  IC50: 59.8 ± 8.33 nM
[5]; Ba/F3 KIF5B-RET^V804L
  inhibiting the proliferation, comparison in words: superior to BLU-667 and Loxo-292
[5]
  IC50: 66.6 ± 20.7 nM
[6]
  inhibiting the proliferation, comparison in words: superior to BLU-667 and Loxo-292
  IC50: 25.5 ± 1.91 nM
[10]
  dose-limiting toxicities (DLT): No dose-limiting toxicities (DLT) were observed
  maximum tolerated dose (MTD): nor was the maximum tolerated dose (MTD) reached
  treatment-related adverse events (TRAE) of grade 1-2 and reversible: 76.1%
[11]
  disease control rate (DCR): 94%
  objective response rate (ORR): 60%
[12]; [14]
  partial response (PR), number of patients: 3 patients
  stable disease (SD), number of patients: 4 patients
[12]; 8 NSCLC patients pretreated with first-generation selective RET inhibitors, dosed at 90 mg or 120 mg, 7 patients
  tumor shrinkage observed, share of patients: 88%
[12]; [15]
  complete response (CR), number of patients: 1
  disease control rate (DCR): 96%
  partial responses (PR), number of patients: 20
[12]; 26 NSCLC patients not systemically pretreated (21/26)
  objective response rate (ORR): 81%
[12]; [16]
  ERC1-RET fusion-positive patient achieving complete response (CR), number of patients: 1
  disease control rate (DCR): 97%
[12]; 33 NSCLC patients systemically pretreated (excluding first-generation selective RET inhibitors) (23/33)
  objective response rate (ORR): 70%
[12]; NSCLC patients not systemically pretreated, 1 patient each
  response of the NCOA4-RET fusion-positive and RELCH-RET fusion-positive patients: partial responses (PR)
[12]; NSCLC patients with brain metastasis
  overall central nervous system disease control rate (CNS DCR): 100%
[12]; six NSCLC patients with brain metastasis and measurable brain lesions, one value per patient
  reductions of measurable brain lesions after treatment: 100% (3×) and 69% and 47% and 17%
